Experimental findings from the OPERA property sets (Mansouri et al. 2018) are described below.

Conditions in the first data set: not given
For orientation: boiling point means the temperature of boiling at a given pressure. As usually defined, the melting point is the temperature, or range, at which the solid turns liquid. In the case of `C#CCCCCCCCCCCCCCC`, the boiling point is 284 °C and the melting point was found to be 15 °C.

`CCCOC=O` came in with a boiling point of 80.9 °C, a log10 Koa of 2.66, a log10 vapour pressure (mmHg) of 1.92 and a melting point of -92.9 °C.

`Ic1ccc(I)c(I)c1I` displayed a melting point of 136 °C.

For the compound `CCCC(=O)N(C)C`, the boiling point is 186 °C and the melting point was -40 °C.

In turn, `C=C1C(=O)O[C@@H]2[C@H]1CC[C@H](C)[C@]1(O)C=CC(=O)[C@@]21C` displayed a melting point of 164 °C.

Take `OCCOc1cccc2ccccc12`: the melting point was determined as 45 °C.

In turn, `CCOC(=O)CCN(SN(C)C(=O)Oc1cccc2c1OC(C)(C)C2)C(C)C` gave a log10 vapour pressure (mmHg) of -6.7.

Turning to `CCCCOC(=O)c1ccc(C(=O)OCCCC)c(C(=O)OCCCC)c1`, the ready biodegradability entry is on record as “readily biodegradable”.

In the case of `C=Cc1ccc(C=C)cc1`, the melting point came to 31 °C and the ready biodegradability result is listed as “not readily biodegradable”.

`N=CN` displayed a melting point of 81 °C.

The compound `CCCCCCCCCCCI` showed a log10 vapour pressure (mmHg) of -2.35.

Compound `O=C(Cl)/C=C/C(=O)Cl` displayed a boiling point of 159 °C and a log10 vapour pressure (mmHg) of 0.316.

In the case of `CCCCN1CCCC1`, the boiling point was 154 °C and the ready biodegradability entry is given as “readily biodegradable”.

As for `CCOP(=S)(S)OCC`, the melting point was -10 °C and the ready biodegradability entry was “not readily biodegradable”.

For `Clc1ccc2c(c1)C(c1ccccc1)=NCc1nncn1-2`, the melting point is 228 °C.

Compound `CC(C)(O)CCSc1ccc(S(N)(=O)=O)cc1` showed a melting point of 140 °C.

As to `CCCCCCCCCCCCCCCC(=O)OC[C@H](O)[C@H]1OC(=O)C(O)=C1O`, the melting point worked out at 116 °C.

Consider `O=C(F)c1ccccc1`, for which the boiling point was 154 °C and the melting point is -28 °C.

As for `CCCOP(=O)(OCCC)Oc1ccc(SC)cc1`, the log10 vapour pressure (mmHg) was -6.05.

`CCC(C)CC(C)=O` (stereo not drawn) yielded a boiling point of 144 °C.

In the case of `c1ccc(C2CO2)cc1` (stereo not drawn), the boiling point is 194 °C, the log10 vapour pressure (mmHg) is -0.523, the melting point is -35.6 °C and the ready biodegradability result is “readily biodegradable”.

As to `CC(Cl)C(=O)CCl` (stereo not drawn), the boiling point came to 166 °C.

Compound `O=C(Cl)Cc1ccccc1` displayed a log10 vapour pressure (mmHg) of -0.702.

Compound `CC(C)OC(=O)C1(S(=O)(=O)c2ccc([N+](=O)[O-])cc2)CC1` returned a melting point of 123 °C.

Consider `CCCCCCO`, for which the boiling point stood at 158 °C, the log10 Henry constant (atm·m³/mol) was -4.77, the log10 vapour pressure (mmHg) is -0.0325 and the melting point is -44.6 °C. The ready biodegradability entry was “readily biodegradable”.

`CCc1cccc(CC)c1N(COC)C(=O)CCl`: the log10 Henry constant (atm·m³/mol) is -8.08, the log10 Koc (L/kg) came to 2.28, the melting point stood at 40 °C and the ready biodegradability result is on record as “not readily biodegradable”.

`O=c1oc2ccccc2c(O)c1C1CC(c2ccc(-c3ccccc3)cc2)Cc2ccccc21` (stereo not drawn): the melting point is 216 °C.

The compound `c1ccc2c(c1)nnc1ccccc12` showed a melting point of 158 °C.

With `CCN(CC)CCOC(=O)C(O)(c1ccccc1)c1ccccc1.Cl`, the melting point worked out at 178 °C.

`CCCCCCCCCCCCCCC1CCCCC1` registered a boiling point of 360 °C and a melting point of 24 °C.

Consider `O=C(O)CCCCCCCCCCF`, for which the melting point is 36 °C.

In turn, `CCCC#CCCCCCC` registered a boiling point of 198 °C and a melting point of -74.7 °C.

The compound `ClCCCCCCl` gave a boiling point of 179 °C, a log10 Henry constant (atm·m³/mol) of -3.25, a log10 vapour pressure (mmHg) of 0.0531 and a melting point of -72.8 °C.

The compound `COc1ccc(C2C(=O)c3ccccc3C2=O)cc1` had a melting point of 156 °C.

In turn, `Clc1ccccc1C(Cl)(Cl)Cl` displayed a boiling point of 264 °C, a log10 vapour pressure (mmHg) of -1.3 and a melting point of 29.4 °C.

In turn, `C=C(Br)CBr` returned a boiling point of 141 °C and a log10 vapour pressure (mmHg) of 0.88.

In turn, `CCC=CCC` had a boiling point of 66.8 °C, a log10 vapour pressure (mmHg) of 2.22 and a melting point of -114 °C.

Turning to `CNC(=O)ON=C(SC)C(=O)N(C)C`, the log10 Koc (L/kg) was determined as 1 and the melting point worked out at 101 °C.

`CCCCOC(=O)c1ccc([N+](=O)[O-])cc1` came in with a melting point of 35.5 °C.

`CNC(=O)Oc1cccc2ccccc12` yielded a boiling point of 315 °C, a log10 Koc (L/kg) of 2.4, a log10 vapour pressure (mmHg) of -5.87 and a melting point of 145 °C. Further, the ready biodegradability entry is “readily biodegradable”.

`Cc1ccc2[nH]nnc2c1`: the melting point was found to be 81 °C.

As for `CCCCCCCC/C=C\CCCCCCCC(=O)OCCCC`, the melting point was -26.5 °C.

`CCC(=O)OC(C)C` registered a boiling point of 110 °C and a log10 vapour pressure (mmHg) of 1.35.

Staying with this data set, now noted: fish.
Compound `Brc1cc(Br)c(Oc2cc(Br)c(Br)cc2Br)cc1Br` registered a log10 BCF of 6.13.

`Brc1c(Br)c(Br)c(-c2c(Br)c(Br)c(Br)c(Br)c2Br)c(Br)c1Br` displayed a log10 BCF of 5.19.

`CC(C)OC(=O)C(C(=O)OC(C)C)=C1SCCS1` showed a log10 BCF of 1.57.

The compound `C=C[C@@]1(C)CC[C@H]2C(=CC[C@@H]3[C@]2(C)CCC[C@@]3(C)C(=O)O)C1` yielded a log10 BCF of 1.63.

Compound `O=[N+]([O-])c1cc(Cl)cc(Cl)c1` showed a log10 BCF of 2.23 and a log10 biotransformation half-life (days) of 0.57.

In turn, `CCc1ccc2ccc3cccc4ccc1c2c34` had a log10 biotransformation half-life (days) of 0.24.

With `C=Cc1ccc(C=C)cc1`, the log10 BCF was 2.48 and the log10 biotransformation half-life (days) was determined as 0.5.

With `CCOP(=S)(S)OCC`, the log10 BCF worked out at 0.7.

`CCc1cccc(CC)c1N(COC)C(=O)CCl`: the log10 BCF was 1.12 and the log10 biotransformation half-life (days) is -1.1.

`CNC(=O)Oc1cccc2ccccc12`: the log10 BCF was 0.95 and the log10 biotransformation half-life (days) was -1.18.
